Experimental data published in PubChem BioAssay AID248 (DTP/NCI, 2004).
“And” between values parts separate entries of the source, which are not always exact repeats. Equal values may be shown once. Inconclusive results and toxic doses are left out. Cut-off read from the data, not from the text of the source: active = T/C of 150% or more; inactive = T/C below 125%.

Test system: L1210 leukemia ip in BDF1 mice, survival T/C
Assay: NCI In Vivo Anticancer Drug Screen. Data for tumor model L1210 Leukemia (intraperitoneal) in B6D2F1 (BDF1) mice
Conditions: endpoint: mean survival time, higher = longer survival
Method in brief: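 Value reflects the ratio of survival in compound-treated mice to survival in vehicle-treated controls, with both groups carrying the same transplanted tumor.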

[1] = dose: 100.0 mg/kg/injection, schedule: Q01DX009 (ip), vehicle: Klucel (hydroxypropylcellulose) (HPC)
[2] = dose: 100.0 mg/kg/injection, schedule: Q04DX003 (ip), vehicle: Klucel (hydroxypropylcellulose) (HPC)
[3] = dose: 100.0 mg/kg/injection, schedule: Q04DX003 (ip), vehicle: saline
[4] = dose: 200.0 mg/kg/injection, schedule: Q01DX009 (ip), vehicle: Klucel (hydroxypropylcellulose) (HPC)
[5] = dose: 200.0 mg/kg/injection, schedule: Q04DX003 (ip), vehicle: Klucel (hydroxypropylcellulose) (HPC)
[6] = dose: 200.0 mg/kg/injection, schedule: Q04DX003 (ip), vehicle: saline
[7] = dose: 400.0 mg/kg/injection, schedule: Q04DX003 (ip), vehicle: Klucel (hydroxypropylcellulose) (HPC)
[8] = dose: 400.0 mg/kg/injection, schedule: Q04DX003 (ip), vehicle: saline
[9] = dose: 100.0 mg/kg/injection, schedule: Q01DX009 (ip), vehicle: saline
[10] = dose: 200.0 mg/kg/injection, schedule: Q01DX009 (ip), vehicle: saline
[11] = dose: 400.0 mg/kg/injection, schedule: Q01DX009 (ip), vehicle: saline
[12] = dose: 50.0 mg/kg/injection, schedule: Q01DX009 (ip), vehicle: Klucel (hydroxypropylcellulose) (HPC)
[13] = dose: 100.0 mg/kg/injection, schedule: Q01DX001 (ip), vehicle: saline
[14] = dose: 200.0 mg/kg/injection, schedule: Q01DX001 (ip), vehicle: saline
[15] = dose: 400.0 mg/kg/injection, schedule: Q01DX001 (ip), vehicle: saline
[16] = dose: 100.0 mg/kg/injection, schedule: Q04DX003 (ip), vehicle: saline with Tween-80
[17] = dose: 200.0 mg/kg/injection, schedule: Q04DX003 (ip), vehicle: saline with Tween-80

Measured: T/C

O=C(NC(=O)c1ccc([N+](=O)[O-])cc1)Nc1ccccc1
inactive: dose: 264.0 mg/kg/injection, schedule: Q01DX001 (ip), vehicle: carboxymethylcellulose (CMC) 92 % of control | dose: 400.0 mg/kg/injection, schedule: Q01DX001 (ip), vehicle: carboxymethylcellulose (CMC) 96 % of control | dose: 600.0 mg/kg/injection, schedule: Q01DX001 (ip), vehicle: carboxymethylcellulose (CMC) 88 % of control

C/C(=N\O)C(=O)c1ccccc1
inactive: [1] 98 % of control | [2] 107 % of control | [3] 103 % of control | [4] 100 % of control | [5] 100 % of control | [6] 107 % of control | dose: 400.0 mg/kg/injection, schedule: Q01DX009 (ip), vehicle: Klucel (hydroxypropylcellulose) (HPC) 93 % of control | [7] 104 % of control | [8] 108 % of control

Cc1cc(C(C)(C)C)ccc1S(=O)(=O)/C=C/c1ccccc1
inactive: dose: 100.0 mg/kg/injection, schedule: Q01DX001 (ip), vehicle: acetone 95 % of control | [9] 93 % of control | dose: 200.0 mg/kg/injection, schedule: Q01DX001 (ip), vehicle: acetone 97 % of control | [10] 88 % of control | dose: 400.0 mg/kg/injection, schedule: Q01DX001 (ip), vehicle: acetone 92 % of control | [11] 88 % of control

COC1/C=C/OC2(C)Oc3c(C)c(O)c4c(O)c(c(/C=N/N5CCN(Cc6ccccc6)CC5)c(O)c4c3C2=O)NC(=O)C(C)=C/C=C/C(C)C(O)C(C)C(O)C(C)C(OC(C)=O)C1C (stereo not given)
inactive: dose: 3.13 mg/kg/injection, schedule: Q01DX009 (ip), vehicle: Klucel (hydroxypropylcellulose) (HPC) 91 % of control | dose: 6.25 mg/kg/injection, schedule: Q01DX009 (ip), vehicle: Klucel (hydroxypropylcellulose) (HPC) 100 % of control | dose: 12.5 mg/kg/injection, schedule: Q01DX009 (ip), vehicle: Klucel (hydroxypropylcellulose) (HPC) 91 % of control | dose: 25.0 mg/kg/injection, schedule: Q01DX009 (ip), vehicle: Klucel (hydroxypropylcellulose) (HPC) 97 % of control | [12] 95 % of control and 110 % of control

Nc1nc(N)c2cc(CCc3ccc(C(=O)NC(CCC(=O)O)C(=O)O)cc3)ccc2n1 (stereo not given)
inactive: dose: 39.0 micrograms/kg/injection, schedule: Q01DX009 (ip), vehicle: Klucel (hydroxypropylcellulose) (HPC) 111 % of control | dose: 78.0 micrograms/kg/injection, schedule: Q01DX009 (ip), vehicle: Klucel (hydroxypropylcellulose) (HPC) 117 % of control | dose: 156.0 micrograms/kg/injection, schedule: Q01DX009 (ip), vehicle: Klucel (hydroxypropylcellulose) (HPC) 117 % of control
active: dose: 625.0 micrograms/kg/injection, schedule: Q01DX009 (ip), vehicle: Klucel (hydroxypropylcellulose) (HPC) 170 % of control

CCC#CC(O)(C(=O)OCC)C1CCCC1 (stereo not given)
inactive: [13] 105 % of control | [14] 105 % of control | [15] 111 % of control

C[S+]1Cc2ccccc2C1
inactive: [16] 106 % of control | [17] 104 % of control

Cc1cccc(P(=O)(c2ccccc2)c2ccccc2)c1 (tested in a mixture with another compound)
inactive: dose: 100.0 mg/kg/injection, schedule: Q04DX002 (ip), vehicle: saline with Tween-80 104 % of control | dose: 200.0 mg/kg/injection, schedule: Q04DX002 (ip), vehicle: saline with Tween-80 96 % of control | dose: 400.0 mg/kg/injection, schedule: Q04DX002 (ip), vehicle: saline with Tween-80 88 % of control

O=C(O)CCCC1CCC(=O)CC1
inactive: [3] 109 % of control | [6] 96 % of control | [8] 100 % of control

O=C(Nc1ccc(Nc2ccccc2)cc1)Nc1cccc(C(F)(F)F)c1
inactive: dose: 100.0 mg/kg/injection, schedule: Q01DX001 (ip), vehicle: gum acacia 94 % of control and 97 % of control | dose: 100.0 mg/kg/injection, schedule: Q01DX009 (ip), vehicle: gum acacia 94 % of control and 98 % of control | dose: 100.0 mg/kg/injection, schedule: Q04DX002 (ip), vehicle: gum acacia 95 % of control | dose: 100.0 mg/kg/injection, schedule: Q04DX003 (ip), vehicle: gum acacia 100 % of control and 101 % of control | dose: 200.0 mg/kg/injection, schedule: Q01DX001 (ip), vehicle: gum acacia 97 % of control and 90 % of control | dose: 200.0 mg/kg/injection, schedule: Q01DX009 (ip), vehicle: gum acacia 98 % of control and 103 % of control | dose: 200.0 mg/kg/injection, schedule: Q04DX002 (ip), vehicle: gum acacia 93 % of control and 86 % of control | dose: 200.0 mg/kg/injection, schedule: Q04DX003 (ip), vehicle: gum acacia 94 % of control | dose: 400.0 mg/kg/injection, schedule: Q01DX001 (ip), vehicle: gum acacia 103 % of control and 87 % of control | dose: 400.0 mg/kg/injection, schedule: Q01DX009 (ip), vehicle: gum acacia 97 % of control and 91 % of control | dose: 400.0 mg/kg/injection, schedule: Q04DX002 (ip), vehicle: gum acacia 100 % of control | dose: 400.0 mg/kg/injection, schedule: Q04DX003 (ip), vehicle: gum acacia 95 % of control and 96 % of control

Cc1nnc(C)n1N
inactive: [13] 106 % of control | [14] 106 % of control | [15] 95 % of control

COC(=O)/C=C1\Nc2ccc([N+](=O)[O-])cc2NC1=O
inactive: [12] 87 % of control | [1] 94 % of control | [4] 100 % of control

CC(OC(=O)Oc1ccccc1)c1ccccc1 (stereo not given)
inactive: [2] 98 % of control | [5] 107 % of control | [7] 98 % of control

O=C1N/C(=N\OCc2ccccc2)CC(NOCc2ccccc2)N1 (stereo not given)
inactive: [16] 101 % of control | [17] 97 % of control | dose: 400.0 mg/kg/injection, schedule: Q04DX003 (ip), vehicle: saline with Tween-80 97 % of control

CCOC(=O)C1(C(C)C)OC2(O)C3CCCN3CC(C(C)C)N2C1=O (stereo not given)
inactive: dose: 6.25 mg/kg/injection, schedule: Q01DX009 (ip), vehicle: saline with Tween-80 100 % of control | dose: 12.5 mg/kg/injection, schedule: Q01DX009 (ip), vehicle: saline with Tween-80 113 % of control | dose: 25.0 mg/kg/injection, schedule: Q01DX009 (ip), vehicle: saline with Tween-80 100 % of control | dose: 25.0 mg/kg/injection, schedule: Q04DX003 (ip), vehicle: saline with Tween-80 94 % of control | dose: 50.0 mg/kg/injection, schedule: Q01DX009 (ip), vehicle: saline with Tween-80 103 % of control | dose: 50.0 mg/kg/injection, schedule: Q04DX003 (ip), vehicle: saline with Tween-80 103 % of control | dose: 100.0 mg/kg/injection, schedule: Q01DX009 (ip), vehicle: saline with Tween-80 96 % of control | [16] 94 % of control

Cc1[nH]c2ccccc2c1C
inactive: [1] 104 % of control | [4] 87 % of control

CCCCCCCCCCCCCCCCCCCCCCCCCC(=O)OCCCCCCCCCCCCCC
inactive: [9] 107 % of control | [3] 109 % of control | [10] 96 % of control | [6] 97 % of control | [11] 94 % of control | [8] 98 % of control

CCOC(=O)C1CCC(NC(=O)N(CCCl)N=O)CC1 (stereo not given)
inactive: dose: 3.0 mg/kg/injection, schedule: Q01DX001 (ip), vehicle: other 109 % of control
active: dose: 12.0 mg/kg/injection, schedule: Q01DX001 (ip), vehicle: other 189 % of control | dose: 16.0 mg/kg/injection, schedule: Q01DX001 (ip), vehicle: other 281 % of control | dose: 20.0 mg/kg/injection, schedule: Q01DX001 (ip), vehicle: other 298 % of control | dose: 21.0 mg/kg/injection, schedule: Q01DX001 (ip), vehicle: other 315 % of control | dose: 24.0 mg/kg/injection, schedule: Q01DX001 (ip), vehicle: other 267 % of control | dose: 30.0 mg/kg/injection, schedule: Q01DX001 (ip), vehicle: other 283 % of control | dose: 31.0 mg/kg/injection, schedule: Q01DX001 (ip), vehicle: other 317 % of control and 337 % of control | dose: 44.0 mg/kg/injection, schedule: Q01DX001 (ip), vehicle: other 270 % of control | dose: 47.0 mg/kg/injection, schedule: Q01DX001 (ip), vehicle: other 252 % of control | dose: 62.0 mg/kg/injection, schedule: Q01DX001 (ip), vehicle: other 259 % of control | dose: 70.0 mg/kg/injection, schedule: Q01DX001 (ip), vehicle: other 159 % of control
